pEC50: −log10 of the molar value. Calls of active or inactive are those of the source.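 How the source made its calls: active means z-score above 3 at 5 µM with at least 500 cells counted in the well; inconclusive means wells under 500 cells, flagged as cytotoxic or low count; inactive means the rest.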
System: MIN6 insulin promoter-GFP reporter, high-content imaging
Test: up-regulation of insulin promoter-GFP reporter – imaging, high-content screening, mouse beta cells (AID 1625)

SMILES: CCN1C=CC2=C(C#N)C(N)C(C#N)(C#N)C(c3ccccc3C(F)(F)F)C2C1 (configuration not stated)
- pEC50: 5.33

SMILES: CCN(CC)c1ccc(/C=C(\C#N)C(=O)c2ccc(Br)cc2)cc1
- EC50: 12 µM (inactive)

SMILES: Cc1ccc(-c2cn3nc(-c4ccccc4)c(-c4ccccc4)nc3n2)cc1
- EC50: 12.4 µM (inactive)

SMILES: COC(=O)c1cc2c(-c3ccccc3)c(C)c3ccccn3c-2c1C(=O)OC
- EC50: > 16 µM (inactive)

SMILES: CCN1CC=C2C(C#N)=C(N)C(C#N)(C#N)[C@H](c3cccc(OC)c3OC)[C@H]2C1
- pEC50: 5.42

SMILES: Cc1cc(N2CCCC2)ccc1/C=C1/C(=O)N(C)C(=S)N1C
- EC50: > 16 µM (inactive)

SMILES: CC(=O)Nc1cccc(C(=O)/C=C/c2ccc(N(C)C)cc2)c1
- EC50: 12.9 µM (inactive)

SMILES: O=[N+]([O-])c1ccc(N2N=C(c3ccco3)CC2c2ccccc2)cc1 (configuration not stated)
- EC50: > 16 µM (inactive)

SMILES: CCN1CC=C2C(C1)C(c1ccc(Cl)s1)C(C#N)=C(N)C2(C#N)C#N (configuration not stated)
- pEC50: 5.05

SMILES: CC(C)(C)c1ccc(OCC(=O)Nc2ccc3c4c(cccc24)C(=O)NC3=O)cc1
- EC50: > 16 µM (inactive)

SMILES: N#C/C(=C/c1ccc(-c2ccccc2)o1)c1nc(-c2cccs2)cs1
- pEC50: 6.01

SMILES: CN(C)c1ccc(/C=C2\N=C(c3ccc(Cl)c([N+](=O)[O-])c3)NC2=O)cc1
- EC50: > 16 µM (inactive)

SMILES: O=c1[nH]c2ccccc2nc1/C=C/c1ccc(F)cc1
- EC50: > 16 µM (inactive)

SMILES: N#Cc1c(NC(=S)NC(=O)c2ccccc2)sc2c1CCN(CCc1ccccc1)C2
- pEC50: 5.15

SMILES: COc1cc(N2CCCC2)c(OC)cc1/C=C(/C#N)c1cccc(Br)c1
- pEC50: 5.32

SMILES: CN1CC=C2C(C#N)=C(N)C(C#N)(C#N)[C@H](c3ccoc3)[C@H]2C1
- EC50: 11.2 µM (inactive)

SMILES: CN(C)c1ccc(/C=C/C(O)=C2/C(=O)N(C)C3(C)CC2c2ccccc2O3)cc1 (configuration not stated)
- EC50: > 16 µM (inactive)

SMILES: N#C/C(=C/c1ccc(N2CCCCC2)o1)C(=O)Nc1ccc(Cl)cc1
- pEC50: 6.32

SMILES: O=[N+]([O-])c1ccc(N/N=C/c2sc(N3CCOCC3)nc2-c2ccccc2)c(S(=O)(=O)Nc2ccccc2Cl)c1
- EC50: > 16 µM (inactive)

SMILES: CCN(CC)c1ccc2cc(/C(N)=N/NC(=O)c3cccs3)c(=O)oc2c1
- EC50: 13.8 µM (inactive)

SMILES: CCCN1C=CC(=C/C=C(\C#N)C(=O)OCC)C=C1
- EC50: > 16 µM (inactive)

SMILES: CC(=O)Cc1cc(O)c2ccccc2c1OC(=O)c1ccc(Br)cc1
- EC50: > 16 µM (inactive)

SMILES: CC(C)OC(=O)CN1C(=O)S/C(=C/c2ccc(N3CCCCC3)o2)C1=O
- pEC50: 5.77

SMILES: O=[N+]([O-])c1ccc(-c2ccc(/C=N/Nc3nc(NCc4ccccc4)nc(N4CCOCC4)n3)o2)cc1
- EC50: > 16 µM (inactive)

SMILES: CNC(=O)c1c(NC(=O)c2ccc(S(=O)(=O)N3CCCc4ccccc43)cc2)sc2c1CCN(C)C2
- EC50: > 16 µM (inactive)

SMILES: O=C1S/C(=C/c2ccc(N3CCOCC3)o2)C(=O)N1Cc1ccc(F)cc1
- EC50: > 16 µM (inactive)

SMILES: CCOCCCNc1nc2c(C)cccn2c(=O)c1/C=C1\SC(=S)N(C(C)CC)C1=O (configuration not stated)
- pEC50: 5.39

SMILES: Cc1ccc(NS(=O)(=O)c2cc([N+](=O)[O-])ccc2N/N=C/c2sc(N3CCOCC3)nc2-c2ccccc2)c(C)c1
- EC50: > 16 µM (inactive)

SMILES: CCOC(=O)CC1C(=O)NCCN1c1nc2c(C)cccn2c(=O)c1/C=C1\SC(=S)N(C(C)CC)C1=O (configuration not stated)
- pEC50: 5.14

SMILES: COc1ccc(-c2ccc3c(N)c(C(=O)c4cccc(OC)c4)sc3n2)cc1
- EC50: > 16 µM (inactive)

SMILES: Cn1c(/C(C#N)=C/c2ccc(-c3ccc(S(N)(=O)=O)cc3)o2)nc2ccccc21
- EC50: > 16 µM (inactive)

SMILES: COCCNC(=S)N/N=C/c1ccc(-c2ccc([N+](=O)[O-])cc2)o1
- EC50: > 16 µM (inactive)

SMILES: CC(=O)Oc1ccc2c(c1)Oc1cc(OC(C)=O)ccc1C21OC(=O)c2ccccc21
- pEC50: 6.36

SMILES: Cc1[nH]c2ccccc2c1/C=N/Nc1ccc([N+](=O)[O-])cc1S(=O)(=O)Nc1ccc(Cl)cc1
- EC50: > 16 µM (inactive)

SMILES: Nc1c(C(=O)c2ccccc2)sc2nsc(SCCN3CCCC3)c12
- pEC50: 5.08

SMILES: CCCCN1C(=O)/C(=C/C=C2/CC(C)(C)CN2C)SC1=S
- pEC50: 5.17

SMILES: O=C1S/C(=C\c2ccc(N3CCOCC3)o2)C(=O)N1c1ccccc1
- EC50: 12.5 µM (inactive)

Source: PubChem BioAssay AID1625 (Sanford-Burnham Center for Chemical Genomics, 2009)
